Test results: US10188747B2, “Methods and compositions for the treatment of cancer” (THE GENERAL HOSPITAL CORPORATION, priority 2014, dated 2019)

Tests used:
HKCs [1] = experiment: Treatment of differentiating HKCs with ER ligands, RT-qPCR and immunoblot analysis; format: cell-based, human; conditions: differentiating HKCs (100% confluence), 72 hours; 10 nM E2, 100 nM DPN, 100 nM PPT, 10 nM fulvestrant vs DMSO
Text: (§1) FIG. 10B depicts graphs of expression of CYP1B1 determined by RT-qPCR in lung and keratinocyte-derived SCC cell lines in parallel with HBECs and HKCs, respectively. […] Data are presented as mean fold change of fluorescence intensity±SD (*P<0.05). FIG. 10D depicts graphs of indicated SCC cells plated in duplicate on Matrigel precoated chambers with spheroid number quantification 10 days later by ImageJ™ analysis of whole-cell images. Data are duplicates±SD (*P<0.05).
(§2) Besides estrogen, other agonists have been developed with elevated specificity for either the ERα or ERß receptors (43).
(§3) Conditions for RT-qPCR, immunoblotting, immunofluorescence and ChIP assays were as previously reported (9, 42). For immunoblotting, unless otherwise indicated, cells were lysed in SDS sample buffer (50 mM Tris-HCl pH 6.8, 2% SDS, 10% glycerol, 0.2 unit nuclease) and protein separation was done in 15-well 4-12% NuPAGE Bis-Tris polyacrylamide gels (Invitrogen). Equal loading controls were done by re-probing the same immunoblots unless otherwise indicated. All assays were done at least twice, with two HKC strains or epidermal samples of independent origin.

HKCs [2] = experiment: DAPT treatment of HKCs infected with Dlx5- and ERβ-expressing retroviruses, RT-qPCR; format: cell-based, human; conditions: DAPT 10 μM, added 24 hours after infection, analysis 48 hours later
Experimental: HKCs under differentiating conditions (100% confluence for 3 days: 100% cf+3D) were analyzed in parallel as point of reference. […] FIG. 5B depicts graphs of HKCs with or without infection with EGR3-, DLX5-, and ERβ-expressing retroviruses as in the previous panel were treated with DAPT (10 μM) or DMSO control at 24 hours after infection followed, 48 hours later, by RT-qPCR analysis of involucrin gene expression, with 36β4 for normalization. As an alternative, HKCs stably infected with a shRNA lentivirus against NOTCH1 or empty vector control were superinfected with the EGR3, DLX5, and ERβ expressing retroviruses, followed 72 hours later by RT-qPCR analysis of the same genes. FIG. 5C depicts graphs of HKCs with or without infection with EGR3-, DLX5-, and ERβ-expressing retroviruses as in FIG. 5A were analyzed, 72 hours after infection, by RT-qPCR of the indicated genes. *P<0.001.
as §3, with “All assays were done at least twice, with two HKC strains or epidermal samples of independent origin.” left out

[3] = test system: SCC13 (skin), SW900 (lung), and SCCO13 (oral) SCC cells; experiment: DAPT treatment of SCC cells infected with ERβ-expressing viral vectors, RT-qPCR; format: cell-based, human; conditions: DAPT 10 μM, added 24 hours after infection, analysis 72 hours later; involucrin and keratin 10
Experimental: FIG. 9A depicts results of SCC cell lines infected with ERβ-expressing viral vectors versus controls as in FIGS. 8A-8E were analyzed for expression of the indicated proteins by immunoblotting. FIG. 9B depicts graphs of SCC13 (skin), SW900 (lung), and SCCO13 (oral) SCC cells infected with ERβ-expressing and control viral vectors were treated 24 hours after infection with DAPT (10 μM) or DMSO control followed, 72 hours later, by RT-qPCR analysis of involucrin and keratin 10 differentiation marker expression. *P<0.05.
To directly assess the impact of increased ERß signaling in SCC outgrowth, a panel of skin, oral and lung SCC cell lines were infected with ERß expressing versus control viruses. […] To test the in vivo impact of increased ERß expression, representative cell lines from skin (SCC13), head/neck (SCCO13) and lung SCCs (H2170) were assessed by intra-dermal tumorigenicity assays in immune compromised mice (42). Cells infected with the ERß expressing lentivirus formed tumors of similar size as the controls, but enhanced Notch1 expression and differentiation (FIGS. 9C-9D).
Conditions for RT-qPCR, immunoblotting, immunofluorescence and ChIP assays were as previously reported (9, 42). […]

SCCO13 cells = experiment: Intradermal tumorigenicity assay, ERß agonist study; format: in vivo, NOD/SCID mice
Experimental: SCC013 cells were injected intradermally in the left supra-scapular region of NOD/SCID mice (1×10^6 cells per injection). […] Animals were sacrificed 10 days later. Tumor weight and volume were measured, followed by determination of Ki67-labeling index by immunofluorescence analysis of histological section. *P<0.05.
Lenti-virally-infected SCC13, SCCO13 cells and retro-virally infected H2170 cells were suspended in matrigel followed by intra-dermal injection (1.0×10^6 cells in 150 μl per injection) into the back skin of 6 weeks old NOD/SCID mice (Taconic Farms Inc. Germantown, N.Y.) as described (9, 42). To minimize the individual animal variations, cells infected with control and ERß expressing viruses were injected in parallel in the right and left flank of the same mice. Mice were sacrificed for tissue analysis 3 weeks (SCC13 and SCCO13) or 1 week (H2170) after injection. For ERß agonist studies, SCCO13 cells were injected intra-dermally into NOD/SCID mice as described above.

[4] = test system: skin, oral, and lung SCC cells; experiment: Spheroid formation assays of SCC cells in Matrigel; format: cell-based, human; conditions: spheroid number 10 days later, vs DMSO
Text: as §1
In vitro and animal model assays are provided herein which allow the assessment of a given dose of an agonist as described herein. By way of non-limiting example, the effects of a dose of an agonist can be assessed by spheroid assay. A non-limiting example of a protocol for such an assay is as follows: 8-well chamber slides are coated with matrigel (BDbiosciences, CA; 50 μl per well) and incubated at 37° C. for 20 minutes to allow matrigel to polymerize. SCC cells are brought into suspension in normal culture medium plus 1% matrigel (7000 cells/ml) and added in triplicates to the pre-coated chamber slides (300 μl of cell mixture per well). Medium is refreshed every other day. An agonist is added to the medium and cell growth and proliferation measured over time, e.g. by microscopy.
Clonogenicity and Alamar Blue assays were as reported (60). […]

SCC cells = experiment: Alamar blue cell density assays of SCC cells; format: cell-based, human; conditions: Alamar blue density assay, vs DMSO, refreshed every other day
Text: as §1
Clonogenicity and Alamar Blue assays were as reported (60). For spheroid assays, 8-well chamber slides were coated with matrigel (BDbiosciences, CA; 50 μl per well) and incubated at 37° C. for 20 minutes to allow matrigel to polymerize. SCC cells were brought into suspension in normal culture medium plus 1% matrigel (7000 cells/ml) and added in triplicates to the pre-coated chamber slides (300 μl of cell mixture per well). Medium was refreshed every other day. For organotypic cultures, HKCs were infected with shRNA expressing lentiviruses followed, 48 hours later, by selection for puromycin ([…]) resistance. Selected keratinocyte cultures were reseeded onto collagen gels with embedded J2-3T3 fibroblasts and cultured at the air-liquid interface as previously described (61). […]

SCC cell lines = experiment: Treatment of a panel of SCC cell lines with DPN, Notch1 and differentiation marker expression; format: cell-based, human
Text: as §1, §2, §3

[5] = SCCO13 tumors, 20 mg/kg daily, data not shown

`C[C@]12CC[C@@H]3c4ccc(O)cc4CC[C@H]3[C@@H]1CC[C@@H]2O` [17β-estradiol] was tested, and the Notch1 expression (HKCs [1]) was “induction” and the differentiation marker expression (HKCs [1]) was “induction”.
With `C[C@H](NC(=O)Cc1cc(F)cc(F)c1)C(=O)N[C@H](C(=O)OC(C)(C)C)c1ccccc1` [DAPT] the “induction of Hey1 and involucrin by enhanced expression of Dlx5 and ERβ” value (HKCs [2]) was “prevented to a large extent” and the “induction of differentiation marker expression by increased ERß expression” value [3] was “significantly counteracted”.
In the case of `N#CC(Cc1ccc(O)cc1)c1ccc(O)cc1` (centres unmarked) [DPN, 2,3-bis(4-Hydroxyphenyl)-propionitrile], the tumor size (SCCO13 cells; SCCO13 cells intradermally, 20 mg/kg intraperitoneally daily for 10 days, vs DMSO vehicle) is reported as “significantly smaller size”, the “Notch1 expression in tumors” value (SCCO13 cells; [5]) is reported as “increased” and the “differentiation marker expression in tumors” value (SCCO13 cells; [5]) is reported as “increased”. The Notch1 expression (HKCs [1]) was “induction”, the differentiation marker expression (HKCs [1]) was “induction” and the “sphere forming capability of SCC cell lines” value [4] was “significantly suppressed”. The “proliferation of SCC cell lines” value (SCC cells) was “significantly suppressed”, the Notch1 expression (SCC cell lines) was “induction” and the differentiation marker expression (SCC cell lines) was “induction”.
With `C[C@]12CC[C@@H]3c4ccc(O)cc4C[C@@H](CCCCCCCCC[S+]([O-])CCCC(F)(F)C(F)(F)F)[C@H]3[C@@H]1CC[C@@H]2O` (some centres unmarked) [Fulvestrant] the Notch1 expression (HKCs [1]) was “suppressed” and the differentiation marker expression (HKCs [1]) was “suppressed”.
For `CCCc1c(-c2ccc(O)cc2)nn(-c2ccc(O)cc2)c1-c1ccc(O)cc1` [PPT, 1,3,5-Tris(4-hydroxyphenyl)-4-propyl-1H-pyrazole], the Notch1 expression (HKCs [1]) was “Little or no induction” and the differentiation marker expression (HKCs [1]) was “Little or no induction”.
